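Briefly, cells in 96-well plates were exposed to five compound concentrations for 48 h, and endpoints were estimated by linear interpolation. Abbreviation: GI50, concentration required for 50% inhibition of growth.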 Active and inactive are the calls of the source. Cut-off read from the data, not from the text of the source: active = GI50 up to about 1.1 µM and inactive = higher.
Experiments:
Test in all cases: inhibition of tumour cell growth, NCI panel, 48 h
DMS-114 = test system: DMS-114
DMS-273 = test system: DMS-273
HOP-18 = test system: HOP-18
KM-20L2 = test system: KM-20L2
LXFL 529 = test system: LXFL 529
M19-MEL = test system: M19-MEL
SNB-78 = test system: SNB-78
XF498 = test system: XF498
RXF 631 = test system: RXF 631

C/C=C/C(C#N)O[Si](C)(C)C (centres undefined)
GI50 (DMS-114): > 100 µM (inactive)
GI50 (DMS-273): > 100 µM (inactive)
GI50 (HOP-18): > 100 µM (inactive)
GI50 (KM-20L2): > 100 µM (inactive)
GI50 (LXFL 529): > 100 µM (inactive)
GI50 (M19-MEL): > 100 µM (inactive)
GI50 (SNB-78): > 100 µM (inactive)
GI50 (XF498): > 100 µM (inactive)

O=C1/C(=C/c2ccccc2)CCC/C1=C\c1ccccc1 [2,6-DIBENZYLIDENECYCLOHEXANONE]
GI50 (DMS-114): 9.68 µM (inactive)
GI50 (DMS-273): 8.04 µM (inactive)
GI50 (HOP-18): 19.5 µM (inactive)
GI50 (KM-20L2): 8.79 µM (inactive)
GI50 (LXFL 529): 4.5 µM (inactive)
GI50 (M19-MEL): 1.97 µM (inactive)
GI50 (RXF 631): 17.7 µM (inactive)
GI50 (SNB-78): 17.5 µM (inactive)

CCOC(=O)C1C(=O)CN2CCc3c([nH]c4ccccc34)C12C(=O)OCC (centres undefined)
GI50 (DMS-114): > 100 µM (inactive)
GI50 (DMS-273): > 100 µM (inactive)
GI50 (HOP-18): 72.8 µM (inactive)
GI50 (KM-20L2): > 100 µM (inactive)
GI50 (LXFL 529): > 100 µM (inactive)
GI50 (M19-MEL): > 100 µM (inactive)
GI50 (RXF 631): > 100 µM (inactive)
GI50 (SNB-78): > 100 µM (inactive)
GI50 (XF498): > 100 µM (inactive)

O=S(=O)(N/N=C/c1c(Cl)cccc1Cl)c1ccccc1
GI50 (DMS-114): > 100 µM (inactive)
GI50 (DMS-273): > 100 µM (inactive)
GI50 (HOP-18): > 100 µM (inactive)
GI50 (KM-20L2): > 100 µM (inactive)
GI50 (LXFL 529): > 100 µM (inactive)
GI50 (M19-MEL): > 100 µM (inactive)
GI50 (RXF 631): > 100 µM (inactive)
GI50 (SNB-78): > 100 µM (inactive)
GI50 (XF498): 68.4 µM (inactive)

CC#C[C@@]1(O)CCCC[C@@H]1O
GI50 (DMS-114): > 100 µM (inactive)
GI50 (DMS-273): > 100 µM (inactive)
GI50 (HOP-18): > 100 µM (inactive)
GI50 (KM-20L2): > 100 µM (inactive)
GI50 (M19-MEL): > 100 µM (inactive)
GI50 (RXF 631): > 100 µM (inactive)
GI50 (SNB-78): > 100 µM (inactive)
GI50 (XF498): > 100 µM (inactive)

Cc1cc(O)nc(NN2C(Cl)C(=O)C2c2cccc([N+](=O)[O-])c2)n1 (centres undefined)
GI50 (DMS-114): 21.8 µM (inactive)
GI50 (DMS-273): 15.6 µM (inactive)
GI50 (HOP-18): 18.5 µM (inactive)
GI50 (KM-20L2): 27.3 µM (inactive)
GI50 (LXFL 529): 16 µM (inactive)
GI50 (M19-MEL): 19.5 µM (inactive)
GI50 (SNB-78): 32.2 µM (inactive)

COC(=O)C(=O)C(C(=O)OC)C(=O)C(=O)Nc1cc(Cl)c(Cl)cc1Cl (centres undefined)
GI50 (DMS-114): 14.6 µM (inactive)
GI50 (DMS-273): 44.7 µM (inactive)
GI50 (HOP-18): > 100 µM (inactive)
GI50 (KM-20L2): > 100 µM (inactive)
GI50 (LXFL 529): > 100 µM (inactive)
GI50 (M19-MEL): > 100 µM (inactive)
GI50 (RXF 631): > 100 µM (inactive)
GI50 (XF498): > 100 µM (inactive)

CC(=O)c1cccc(NC(=O)C(=O)C(C(=O)c2ccccc2F)C2OC(=O)c3ccccc32)c1 (centres undefined)
GI50 (DMS-114): 31 µM (inactive)
GI50 (DMS-273): 34 µM (inactive)
GI50 (KM-20L2): 40.2 µM (inactive)
GI50 (LXFL 529): 44 µM (inactive)
GI50 (M19-MEL): 23.1 µM (inactive)
GI50 (RXF 631): 21.1 µM (inactive)
GI50 (SNB-78): 12.5 µM (inactive)
GI50 (XF498): 35.6 µM (inactive)

C[C@@H]1O[C@]2(O)[C@@H]3CCCN3S(=O)(=O)CCN2C1=O
GI50 (HOP-18): > 100 µM (inactive)
GI50 (KM-20L2): > 100 µM (inactive)
GI50 (LXFL 529): > 100 µM (inactive)
GI50 (M19-MEL): > 100 µM (inactive)
GI50 (RXF 631): > 100 µM (inactive)
GI50 (SNB-78): > 100 µM (inactive)
GI50 (XF498): 8.41 µM (inactive)

C/C(=C/c1c(C)[nH]c(=O)[nH]c1=O)C(=O)O
GI50 (DMS-114): > 1370 µM (inactive)
GI50 (DMS-273): > 1370 µM (inactive)
GI50 (HOP-18): > 1370 µM (inactive)
GI50 (KM-20L2): > 1370 µM (inactive)
GI50 (M19-MEL): > 1370 µM (inactive)
GI50 (SNB-78): > 1370 µM (inactive)
GI50 (XF498): > 1370 µM (inactive)

COc1ccc(CCC2NCCc3cc(OC)c(OC)cc32)cc1 (centres undefined)
GI50 (HOP-18): > 100 µM (inactive)
GI50 (KM-20L2): > 100 µM (inactive)
GI50 (LXFL 529): > 100 µM (inactive)
GI50 (SNB-78): 79.8 µM (inactive)
GI50 (XF498): > 100 µM (inactive)

CCOC(=O)c1c(-c2ccccc2)c(C(OC(c2ccccc2)c2c(-c3ccccc3)c(C(=O)OCC)n3ccccc23)c2ccccc2)c2ccccn12 (centres undefined)
GI50 (DMS-273): > 100 µM (inactive)
GI50 (HOP-18): > 100 µM (inactive)
GI50 (KM-20L2): > 100 µM (inactive)
GI50 (LXFL 529): > 100 µM (inactive)
GI50 (SNB-78): > 100 µM (inactive)
GI50 (XF498): > 100 µM (inactive)

CCCSc1nc(COC(=O)NC)c(COC(=O)NC)n1C
GI50 (DMS-114): 38.7 µM (inactive)
GI50 (DMS-273): > 95.5 µM (inactive)
GI50 (HOP-18): > 100 µM (inactive)
GI50 (KM-20L2): > 100 µM (inactive)
GI50 (M19-MEL): > 95.1 µM (inactive)
GI50 (SNB-78): > 80.5 µM (inactive)
GI50 (XF498): > 100 µM (inactive)

CN=S(=O)(C[C@]1(O)CC2OC1C1OC(C)(C)OC21)c1ccccc1 (some centres undefined)
GI50 (DMS-114): > 100 µM (inactive)
GI50 (DMS-273): > 100 µM (inactive)
GI50 (KM-20L2): > 100 µM (inactive)
GI50 (LXFL 529): > 100 µM (inactive)
GI50 (M19-MEL): > 100 µM (inactive)
GI50 (SNB-78): > 100 µM (inactive)
GI50 (XF498): > 100 µM (inactive)

COc1ccc(NC(=O)C(=O)NO)c(OC)c1
GI50 (DMS-114): 15.5 µM (inactive)
GI50 (DMS-273): 16.6 µM (inactive)
GI50 (HOP-18): 17.3 µM (inactive)
GI50 (KM-20L2): 19.1 µM (inactive)
GI50 (LXFL 529): 16.7 µM (inactive)
GI50 (M19-MEL): 21.9 µM (inactive)
GI50 (RXF 631): 18.6 µM (inactive)
GI50 (SNB-78): 19.8 µM (inactive)

O=C1/C(=C/c2ccccc2)CN(C(=O)C(Cl)(Cl)Cl)C/C1=C\c1ccccc1
GI50 (DMS-114): 1.6 µM (inactive)
GI50 (DMS-273): 1.06 µM (active)
GI50 (HOP-18): 2.96 µM (inactive)
GI50 (KM-20L2): 2.16 µM (inactive)
GI50 (LXFL 529): 1.59 µM (inactive)
GI50 (M19-MEL): 1.33 µM (inactive)
GI50 (SNB-78): 2.72 µM (inactive)

CC1(C)C2CCC3(OCCO3)C1C1OC12 (centres undefined)
GI50 (DMS-273): > 100 µM (inactive)
GI50 (HOP-18): 45.6 µM (inactive)
GI50 (KM-20L2): > 100 µM (inactive)
GI50 (RXF 631): > 100 µM (inactive)
GI50 (SNB-78): > 100 µM (inactive)
GI50 (XF498): > 100 µM (inactive)

CN(/N=C/c1cccc2cccnc12)c1ccc([N+](=O)[O-])cc1[N+](=O)[O-]
GI50 (DMS-114): 20.2 µM (inactive)
GI50 (DMS-273): 34.4 µM (inactive)
GI50 (HOP-18): > 100 µM (inactive)
GI50 (KM-20L2): > 100 µM (inactive)
GI50 (LXFL 529): > 100 µM (inactive)
GI50 (M19-MEL): > 78 µM (inactive)
GI50 (RXF 631): 36.1 µM (inactive)
GI50 (SNB-78): 18.4 µM (inactive)
GI50 (XF498): 6.01 µM (inactive)

N#CCC(=O)N/N=C1\C(=O)N(c2ccc(Cl)cc2)C(=O)C(=O)C1c1nc2ccccc2o1 (centres undefined)
GI50 (DMS-114): > 100 µM (inactive)
GI50 (DMS-273): > 100 µM (inactive)
GI50 (HOP-18): > 100 µM (inactive)
GI50 (KM-20L2): > 100 µM (inactive)
GI50 (LXFL 529): > 100 µM (inactive)
GI50 (M19-MEL): > 100 µM (inactive)
GI50 (RXF 631): > 100 µM (inactive)
GI50 (SNB-78): > 100 µM (inactive)

O=C(c1cccs1)N(C(=S)N1CCN(c2ccccc2)CC1)c1ccccc1
GI50 (DMS-114): > 100 µM (inactive)
GI50 (DMS-273): > 100 µM (inactive)
GI50 (HOP-18): > 100 µM (inactive)
GI50 (KM-20L2): > 100 µM (inactive)
GI50 (LXFL 529): > 100 µM (inactive)
GI50 (M19-MEL): > 100 µM (inactive)
GI50 (SNB-78): > 100 µM (inactive)

From ChEMBL document CHEMBL1201862, “PubChem BioAssay data set” (2004)
